Laboratory results from US11584734B2, “Tricyclic compounds as histone methyltransferase inhibitors” (GLOBAL BLOOD THERAPEUTICS, INC., priority 2017, dated 2023).

Target: T1, G9a (Homo sapiens, UniProt Q96KQ7)
T1 sequence (Q96KQ7 1-1210): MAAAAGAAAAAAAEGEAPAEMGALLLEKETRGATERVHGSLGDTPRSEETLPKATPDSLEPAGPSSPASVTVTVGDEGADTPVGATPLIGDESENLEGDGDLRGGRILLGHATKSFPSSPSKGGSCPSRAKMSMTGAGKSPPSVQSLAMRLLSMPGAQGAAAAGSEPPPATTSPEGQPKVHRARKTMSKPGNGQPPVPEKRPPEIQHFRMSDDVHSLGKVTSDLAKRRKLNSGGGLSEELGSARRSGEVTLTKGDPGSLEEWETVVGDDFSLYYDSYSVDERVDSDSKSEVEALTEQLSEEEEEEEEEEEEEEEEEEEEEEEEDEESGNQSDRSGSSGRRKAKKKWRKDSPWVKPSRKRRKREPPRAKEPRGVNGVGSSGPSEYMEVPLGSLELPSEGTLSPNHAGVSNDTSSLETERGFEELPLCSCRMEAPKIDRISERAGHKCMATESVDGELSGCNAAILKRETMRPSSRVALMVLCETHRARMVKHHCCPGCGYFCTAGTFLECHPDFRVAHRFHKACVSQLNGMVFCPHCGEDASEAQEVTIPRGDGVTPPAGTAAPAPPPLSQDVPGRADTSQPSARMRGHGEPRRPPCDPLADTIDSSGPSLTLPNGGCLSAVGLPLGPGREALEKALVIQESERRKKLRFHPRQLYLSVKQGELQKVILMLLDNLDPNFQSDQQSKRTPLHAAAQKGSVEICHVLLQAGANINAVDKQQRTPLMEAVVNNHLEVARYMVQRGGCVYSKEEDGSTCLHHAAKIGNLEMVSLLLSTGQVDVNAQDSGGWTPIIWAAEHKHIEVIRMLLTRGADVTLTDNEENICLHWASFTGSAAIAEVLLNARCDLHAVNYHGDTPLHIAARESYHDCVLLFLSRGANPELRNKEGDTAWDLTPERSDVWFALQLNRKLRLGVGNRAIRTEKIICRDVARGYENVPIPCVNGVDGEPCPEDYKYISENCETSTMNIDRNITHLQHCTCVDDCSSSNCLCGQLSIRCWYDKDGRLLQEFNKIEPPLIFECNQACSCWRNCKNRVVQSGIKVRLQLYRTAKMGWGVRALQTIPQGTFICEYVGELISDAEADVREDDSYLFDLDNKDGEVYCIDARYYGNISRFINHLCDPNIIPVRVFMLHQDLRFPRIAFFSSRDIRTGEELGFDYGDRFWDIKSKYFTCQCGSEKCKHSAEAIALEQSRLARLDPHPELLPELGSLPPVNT
Test: G9a AlphaLISA enzymatic activity assay
Format: biochemical
Settings: negative log of IC50 in molar, 0.15 nM G9a, 15 uM S-adenosyl-methionine, 100 nM biotinylated histone 3 peptide (1-21)
Source text: The G9a AlphaLISA assay was used to detect the methyl modifications of a biotinylated histone H3 peptide by the compounds. These modifications are done by the histone methyl transferase activity of the G9a enzyme. The assay consists of reading a chemiluminescent signal at 615 nm; this signal is generated by a laser excitation at 680 nm that transfers a reactive singlet oxygen between the donor beads and acceptor beads. Donor beads are streptavidin conjugated and bind to the biotin on the peptide. Acceptor beads are conjugated with an antibody that recognizes the specific G9a methyl mark on the peptide. If there is a methyl mark on the peptide, the acceptor beads will bind to the peptide. Upon binding, the acceptor beads will be in close proximity (<200 nm) of the donor beads and when the donor beads are excited, the transfer of the oxygen can occur and a strong signal will be generated. If there is no methyl mark, the interaction between beads will not occur and signal will be at background levels.
For the assay, the following buffer was used to set up reactions: 50 mM Tris-HCl pH9, 50 mM NaCl, 0.01% Tween-20 and 1 mM DTT (added fresh prior to starting the reactions). […] The reaction is incubated at rt for 1 hour and subsequently quenched by the addition of the acceptor beads (anti-H3k9me2 AlphaLISA acceptor beads, PerkinElmer #AL117) at a final concentration of 20 ug/mL. The acceptor beads are incubated for 1 hour. After 1 hour, the donor beads are added at a final concentration of 20 ug/mL (Alpha Streptavidin donor beads, PerkinElmer #6760002). Donor beads are incubated for 0.5 hours. Both donor and acceptor beads are resuspended in AlphaLISA 5X Epigenetics Buffer 1 Kit (PerkinElmer #AL008) prior to addition to the reaction. All manipulations and incubations with the donor and acceptor beads are done in subdued light. Signal is detected in an EnVision plate reader in Alpha mode. See ACS Med Chem Lett. 2014; 5(2):205-9.
Percent inhibition was calculated for each compound dilution and the concentration that produced 50% inhibition was calculated. This value is presented as the pIC50, which is the negative log of the IC50 value in molar.

SMILES | IC50
CNc1c2c(nc3cc(OCCCN4CCCC4)c(OC)cc13)C1CCCC2C1 (stereo not shown) [Example 36, 7-methoxy-N-methyl-6-[3-(pyrrolidin-1-yl)propoxy]-3-azatetracyclo[10.3.1.0^{2,11}.0^{4,9}]hexadeca-2,4,6,8,10-pentaen-10-amine] | 19.5 nM
COc1cc2c(NCC3CC3)c3c(nc2cc1OCC(O)CN1CCCC1)CCC3 (stereo not shown) [Example 40, 1-({9-[(cyclopropylmethyl)amino]-7-methoxy-1H,2H,3H-cyclopenta[b]quinolin-6-yl}oxy)-3-(pyrrolidin-1-yl)propan-2-ol] | 40.7 nM
CCOCCNc1c2c(nc3cc(COCCN4CCCC4)c(OC)cc13)CCC2 [Example 41, N-(2-ethoxyethyl)-7-methoxy-6-{[2-(pyrrolidin-1-yl)ethoxy]methyl}-1H,2H,3H-cyclopenta[b]quinolin-9-amine] | 33.9 nM
COCCNc1c2c(nc3cc(OCCCN4CCCC4)c(OC)cc13)C1CCCC2C1 (stereo not shown) [Example 43, 7-methoxy-N-(2-methoxyethyl)-6-[3-(pyrrolidin-1-yl)propoxy]-3-azatetracyclo[10.3.1.0^{2,11}.0^{4,9}]hexadeca-2,4,6,8,10-pentaen-10-amine] | 39.8 nM
COc1cc2c(NCC3CC3)c3c(nc2cc1OC[C@H](C)CN1CCCC1)CCC3 [Example 44, N-(cyclopropylmethyl)-7-methoxy-6-[(2R)-2-[(pyrrolidin-1-yl)methyl]propoxy]-1H,2H,3H-cyclopenta[b]quinolin-9-amine] | 166 nM
COc1cc2c(NC(C)C)c3c(nc2cc1OCCOCCN(C)C)CCC3 [Example 45, 6-{2-[2-(dimethylamino)ethoxy]ethoxy}-7-methoxy-N-(propan-2-yl)-1H,2H,3H-cyclopenta[b]quinolin-9-amine] | 17.4 nM
CNc1c2c(nc3cc(OCCCNC(C)=O)c(OC)cc13)CCC2 [Example 46, N-(3-{[7-methoxy-9-(methylamino)-1H,2H,3H-cyclopenta[b]quinolin-6-yl]oxy}propyl)acetamide] | 3090 nM
CNc1c2c(nc3cc(OCCCN4C5CCC4CC5)c(OC)cc13)CCC2 [Example 47, 6-(3-{7-azabicyclo[2.2.1]heptan-7-yl}propoxy)-7-methoxy-N-methyl-1H,2H,3H-cyclopenta[b]quinolin-9-amine] | 1350 nM
CNc1c2c(nc3cc(OCCCN(C)CCF)c(OC)cc13)CCC2 [Example 55, 6-{3-[(2-fluoroethyl)(methyl)amino]propoxy}-7-methoxy-N-methyl-1H,2H,3H-cyclopenta[b]quinolin-9-amine] | 813 nM
CCNc1c2c(nc3cc(OCCCN(C)CCF)c(OC)cc13)CCC2 [Example 56, N-ethyl-6-{3-[(2-fluoroethyl)(methyl)amino]propoxy}-7-methoxy-1H,2H,3H-cyclopenta[b]quinolin-9-amine] | 1050 nM
CCOCCNc1c2c(nc3cc(OCCCN(C)CCF)c(OC)cc13)CCC2 [Example 57, N-(2-ethoxyethyl)-6-{3-[(2-fluoroethyl)(methyl)amino]propoxy}-7-methoxy-1H,2H,3H-cyclopenta[b]quinolin-9-amine] | 1480 nM
CCN(CCCOc1cc2nc3c(c(NC)c2cc1OC)CCC3)CCOC [Example 58, 6-{3-[ethyl(2-methoxyethyl)amino]propoxy}-7-methoxy-N-methyl-1H,2H,3H-cyclopenta[b]quinolin-9-amine] | 2750 nM

Results, then the compound that gave them:

IC50 | SMILES
35.5 nM | CCNc1c2c(nc3cc(OCCCN4CCCC4)c(OC(F)F)cc13)CCC2 [Example 30, 7-(difluoromethoxy)-N-ethyl-6-[3-(pyrrolidin-1-yl)propoxy]-1H,2H,3H-cyclopenta[b]quinolin-9-amine]
110 nM | CCCNc1c2c(nc3cc(OCCCN4CCCC4)c(OC(F)F)cc13)CCC2 [Example 31, 7-(difluoromethoxy)-N-propyl-6-[3-(pyrrolidin-1-yl)propoxy]-1H,2H,3H-cyclopenta[b]quinolin-9-amine]
107 nM | COCCNc1c2c(nc3cc(OCCCN4CCCC4)c(OC(F)F)cc13)CCC2 [Example 32, 7-(difluoromethoxy)-N-(2-methoxyethyl)-6-[3-(pyrrolidin-1-yl)propoxy]-1H,2H,3H-cyclopenta[b]quinolin-9-amine]
145 nM | COCCCNc1c2c(nc3cc(OCCCN4CCCC4)c(OC(F)F)cc13)CCC2 [Example 33, 7-(difluoromethoxy)-N-(3-methoxypropyl)-6-[3-(pyrrolidin-1-yl)propoxy]-1H,2H,3H-cyclopenta[b]quinolin-9-amine]
28.8 nM | CNc1c2c(nc3cc(OCCCN4CCCC4)c(OC(F)F)cc13)CCC2 [Example 34, 7-(difluoromethoxy)-N-methyl-6-[3-(pyrrolidin-1-yl)propoxy]-1H,2H,3H-cyclopenta[b]quinolin-9-amine]
63.1 nM | CC(C)Nc1c2c(nc3cc(OCCCN4CCCC4)c(OC(F)F)cc13)CCC2 [Example 35, 7-(difluoromethoxy)-N-(propan-2-yl)-6-[3-(pyrrolidin-1-yl)propoxy]-1H,2H,3H-cyclopenta[b]quinolin-9-amine]
107 nM | COCCNc1c2c(nc3cc(OCCCN4CCCC4)c(OC)cc13)CCCCC2 [Example 37, 2-methoxy-N-(2-methoxyethyl)-3-[3-(pyrrolidin-1-yl)propoxy]-6H,7H,8H,9H,10H-cyclohepta[b]quinolin-11-amine]
214 nM | COC[C@H](C)Nc1c2c(nc3cc(OCCCN4CCCC4)c(OC)cc13)CCCCC2 [Example 38, 2-methoxy-N-[(2S)-1-methoxypropan-2-yl]-3-[3-(pyrrolidin-1-yl)propoxy]-6H,7H,8H,9H,10H-cyclohepta[b]quinolin-11-amine]
57.5 nM | COc1cc2c(NCCC(C)(C)O)c3c(nc2cc1OCCCN1CCCC1)CCCCC3 [Example 39, 4-({2-methoxy-3-[3-(pyrrolidin-1-yl)propoxy]-6H,7H,8H,9H,10H-cyclohepta[b]quinolin-11-yl}amino)-2-methylbutan-2-ol]
97.7 nM | FC(F)Oc1cc2c(NCC3CC3)c3c(nc2cc1OCCCN1CCCC1)CCC3 [Example 42, N-(cyclopropylmethyl)-7-(difluoromethoxy)-6-[3-(pyrrolidin-1-yl)propoxy]-1H,2H,3H-cyclopenta[b]quinolin-9-amine]
603 nM | CNc1c2c(nc3cc(OCCCN4CCCC4)c(OC(F)(F)F)cc13)CCC2 [Example 48, N-methyl-6-[3-(pyrrolidin-1-yl)propoxy]-7-(trifluoromethoxy)-1H,2H,3H-cyclopenta[b]quinolin-9-amine]
646 nM | CCNc1c2c(nc3cc(OCCCN4CCCC4)c(OC(F)(F)F)cc13)CCC2 [Example 49, N-ethyl-6-[3-(pyrrolidin-1-yl)propoxy]-7-(trifluoromethoxy)-1H,2H,3H-cyclopenta[b]quinolin-9-amine]
776 nM | COCCNc1c2c(nc3cc(OCCCN4CCCC4)c(OC(F)(F)F)cc13)CCC2 [Example 50, N-(2-methoxyethyl)-6-[3-(pyrrolidin-1-yl)propoxy]-7-(trifluoromethoxy)-1H,2H,3H-cyclopenta[b]quinolin-9-amine]
